# In patent US20260216219A1, “MODULATOR FOR PROMOTING BINDING OF BUTYROPHILIN 3A1/2A1” (priority 2023, published 2026):
# Test system: MIAPaCa/FG2 cells
# Test: EC50 assay of small molecule activated γδ T cells to kill tumor cells (10-fold dilution, 10^-12-10^-5 M)
# Assay type: cell-based
# Conditions: Homo sapiens, MIA PaCa-2, 20 h, read-out: MIApaca killing (nM)
# Protocol: γδT cells and MIAPaCa/FG2 tumor cell lines were expanded and cultured in vitro. The MIAPaCa/FG2 cells were digested, and the cells were counted and resuspended in DMEM complete medium, the density of the cell suspension was adjusted and added into a 96-well plate at 5×10^3 cells/50 μL/well for overnight incubation. On the next day, the test compound and the control compound were diluted at a 10-fold ratio with γδT complete medium. 50 μL of diluted compound was transferred to the corresponding wells which had been plated with tumor cells, and the actual detection concentration was in the range of 10^−12-10^−5 M. γδT cells were resuspended in γδT complete medium, and the density of the cell suspension was adjusted according to the effector-target ratio of E:T=2:1, and then the cells were added to the corresponding wells at 1×10^4 cells/50 μL/well. After co-culture at 37° C., 5% CO2 for 20 hours, the cells were centrifuged. The supernatant was removed, and 50 μL of cell lysate containing luciferin substrate was added to each well. After standing for 18 minutes in the dark, the signal of chemiluminescence was detected. The EC50 value was calculated by four-parameter fitting, with the corresponding signal value of the well with only tumor cells as the minimum killing value, and the corresponding signal value of the well without tumor cells as the maximum killing value. The killing data of MIAPaCa/FG2 cells are as follows: […]
row,Compound,EC50 [nM]
1,"C/C(=C\CCP(=O)(N[C@@H](C)C(=O)OC(C)C)Oc1ccccc1)CO (stereo partly drawn) [Control compound 1, Isopropyl (((E)-5-hydroxy-4-methylpent-3-en-1-yl)(phenoxy)phosphoryl)-L-alaninate, reference compound]",0.57

# Same assay, conditions: Homo sapiens, MIA PaCa-2; γδT cells co-cultured with MIAPaCa/FG2 cells, E:T=2:1, 20 hours; compound diluted 10-fold, 10^-12-10^-5 M; chemiluminescence; read-out: MIApaca killing
row,Compound,EC50 [nM]
1,CC(C)OC(=O)[C@H](C)NP(=O)(OC/C=C(/CO)C(F)(F)F)Oc1ccc(C[C@H](NC(=O)OCc2ccccc2)C(=O)OC2CCCC2)cc1 (stereo partly drawn) [Compound 6],11.4
2,CC(C)OC(=O)[C@H](Cc1ccc(OP(=O)(N[C@@H](C)C(=O)OC2CCCC2)OC/C=C(/CO)C(F)(F)F)cc1)NC(=O)OCc1ccccc1 (stereo partly drawn) [Compound 7],9.6

# Same assay, conditions: read-out: MIApaca killing; γδT cells co-cultured with MIAPaCa/FG2 cells, E:T=2:1, 20 hours; compound diluted 10-fold, 10^-12-10^-5 M; chemiluminescence
row,Compound,EC50 [nM]
1,"C/C(=C\CCP(=O)(N[C@@H](C)C(=O)OC(C)C)Oc1ccc(C[C@H](NC(=O)OCc2ccccc2)C(=O)OC2CCCC2)cc1)CO (stereo partly drawn) [Compound 1, Cyclopentyl (2S)-2-(benzyloxycarbonylamino)-3-[4-[[(E)-5-hydroxy-4-methyl-pent-3-enyl]-[[(1S)-2-isopropoxy-1-methyl-2-oxo-ethyl]amino]phosphoryl]oxyphenyl]propionate]",0.1
2,"C/C(=C\CCP(=O)(N[C@@H](C)C(=O)OC(C)C)Oc1ccc(C[C@H](NC(=O)OCc2ccccc2)C(=O)O[C@H]2CCOC2)cc1)CO (stereo partly drawn) [Compound 2, (S)-tetrahydrofuran-3-yl (2S)-2-(benzyloxycarbonylamino)-3-[4-[[(E)-5-hydroxy-4-methyl-pent-3-enyl]-[[(1S)-2-isopropoxy-1-methyl-2-oxo-ethyl]amino]phosphoryl]oxyphenyl]propionate]",0.12
3,"C/C(=C\CCP(=O)(N[C@@H](C)C(=O)OC(C)C)Oc1ccc(C[C@H](NC(=O)OCc2ccccc2)C(=O)O[C@@H]2CCOC2)cc1)CO (stereo partly drawn) [Compound 3, (R)-tetrahydrofuran-3-yl (2S)-2-(benzyloxycarbonylamino)-3-[4-[[(E)-5-hydroxy-4-methyl-pent-3-enyl]-[[(1S)-2-isopropoxy-1-methyl-2-oxo-ethyl]amino]phosphoryl]oxyphenyl]propionate]",0.17
4,"C/C(=C\CCP(=O)(N[C@@H](C)C(=O)OC1CCCC1)Oc1ccc(C[C@H](NC(=O)OCc2ccccc2)C(=O)OC(C)C)cc1)CO (stereo partly drawn) [Compound 4, Isopropyl (2S)-2-(benzyloxycarbonylamino)-3-[4-[[(E)-5-hydroxy-4-methyl-pent-3-enyl]-[[(1S)-2-isocyclopentyloxy-1-methyl-2-oxo-ethyl]amino]phosphoryl]oxyphenyl]propionate]",0.07
5,"C/C(=C\CCP(=O)(N[C@@H](C)C(=O)OC(C)C)Oc1ccc(C[C@H](NC(=O)CCc2ccccc2)C(=O)OC2CCCC2)cc1)CO (stereo partly drawn) [Compound 5, Cyclopentyl (2S)-2-(3-phenylpropionylamino)-3-[4-[[(E)-5-hydroxy-4-methyl-pent-3-enyl]-[[(1S)-2-isopropoxy-1-methyl-2-oxo-ethyl]amino]phosphoryl]oxyphenyl]propionate]",0.06

# Same assay, conditions: γδT cells co-cultured with MIAPaCa/FG2 cells, E:T=2:1, 20 hours; compound diluted 10-fold, 10^-12-10^-5 M; chemiluminescence; read-out: MIApaca killing
row,Compound,EC50 [nM]
1,"C/C(=C\COP(=O)(O)OP(=O)(O)O)CO [HMBPP control, reference compound]",2.1

# Test system: MIAPaCa/FG2 cells
# Test: EC50 assay of small molecule activated γδ T cells to kill tumor cells (3-fold dilution, 0.05-100 nM)
# Assay type: cell-based
# Conditions: T-cell, γδT cells co-cultured with MIAPaCa/FG2 cells, E:T=2:1, 20 hours, compound diluted 3-fold, chemiluminescence, read-out: killing data of MIAPaCa/FG2 cells (EC50)
# Protocol: γδT cells and MIAPaCa/FG2 tumor cell lines were expanded and cultured in vitro. MIAPaCa/FG2 cells were digested, and the cells were counted and resuspended in DMEM complete medium, the density of the cell suspension was adjusted and added into a 96-well plate at 5×10^3 cells/50 μL/well for overnight incubation. On the next day, the test compound and the control compound were diluted at a 3-fold ratio with DMSO, and 4 μL of the diluted compound was added to 96 μL of culture medium for 25-fold dilution. 5 μL of 25-fold diluted compound was transferred to the corresponding well which had been plated with tumor cells, and the actual detection concentration was in the range of 0.05-100 nM. γδT cells were resuspended in γδT complete medium, and the density of the cell suspension was adjusted according to the effector-target ratio of E:T=2:1, and then the cell was added to the corresponding well at 1×10^4 cells/100 μL/well. After co-culture at 37° C., 5% CO2 for 20 hours, the cells were centrifuged. The supernatant was removed, and 50 μL of cell lysate containing […] substrate was added to each well. After standing for 18 minutes in the dark, the signal of chemiluminescence was detected. The EC50 value was calculated by four-parameter fitting, with the corresponding signal value of the well with only tumor cells as the minimum killing value, and the corresponding value of the well without tumor cells as the maximum killing value. The killing data of MIAPaCa/FG2 cells are as follows: […]
row,Compound,EC50 [nM]
1,"C/C(=C\CCP(=O)(N[C@@H](C)C(=O)OC(C)C)Oc1ccccc1)CO (stereo partly drawn) [Control compound 1, Isopropyl (((E)-5-hydroxy-4-methylpent-3-en-1-yl)(phenoxy)phosphoryl)-L-alaninate, reference compound]",0.53

# Same assay, conditions: γδT cells co-cultured with MIAPaCa/FG2 cells, E:T=2:1, 20 hours, compound diluted 3-fold, chemiluminescence, read-out: killing data of MIAPaCa/FG2 cells (EC50)
row,Compound,EC50 [nM]
1,C/C(=C\CCP(=O)(N[C@@H](C)C(=O)OC(C)C)Oc1ccc(C[C@H](NCCCc2ccccc2)C(=O)O[C@@H]2CCOC2)cc1)CO (stereo partly drawn) [Compound 8],0.052
2,C/C(=C\CCP(=O)(N[C@@H](C)C(=O)OC(C)C)Oc1ccc(C[C@H](NCCCc2ccccc2)C(=O)O[C@H]2CCOC2)cc1)CO (stereo partly drawn) [Compound 9],0.012
3,"C/C(=C\CCP(=O)(N[C@@H](C)C(=O)OC(C)C)Oc1ccc(C[C@H](NCCc2ccccc2)C(=O)O[C@H]2CCOC2)cc1)CO (stereo partly drawn) [Compound 11, (S)-Tetrahydrofuran-3-yl (2S)-3-(4-((((E)-5-hydroxy-4-methylpent-3-en-1-yl)(((S)-1-isopropoxy-1-oxopropan-2-yl)amino)phosphor yl)oxy)phenyl)-2-(phenethylamino)propionate]",41.7
4,"C/C(=C\CCP(=O)(N[C@@H](C)C(=O)OCC(C)C)Oc1ccc(C[C@H](NCCCc2ccccc2)C(=O)O[C@H]2CCOC2)cc1)CO (stereo partly drawn) [Compound 12, (S)-tetrahydrofuran-3-yl (2S)-3-(4-((((E)-5-hydroxy-4-methylpent-3-en-1-yl)(((S)-1-isobutoxy-1-oxopropan-2-yl)amino)phosphoryl)oxy)phenyl)-2-((3-phenylpropyl)amino)propionate]",0.011
5,"CCC(CC)OC(=O)[C@H](C)NP(=O)(CC/C=C(\C)CO)Oc1ccc(C[C@H](NCCCc2ccccc2)C(=O)O[C@H]2CCOC2)cc1 (stereo partly drawn) [Compound 13, (S)-tetrahydrofuran-3-yl (2S)-3-(4-((((E)-5-hydroxy-4-methylpent-3-en-1-yl)(((S)-1-oxo-1-(pentan-3-yloxy)propan-2-yl)amino)phosphoryl)oxy)phenyl)-2-((3-phenylpropyl)amino)propionate]",0.42
6,C/C(=C\CC[P@@](=O)(N[C@@H](C)C(=O)NC(C)C)Oc1ccc(C[C@H](NCCCc2ccccc2)C(=O)O[C@H]2CCOC2)cc1)CO [Compound 14],0.016
7,C/C(=C\CC[P@](=O)(N[C@@H](C)C(=O)NC(C)C)Oc1ccc(C[C@H](NCCCc2ccccc2)C(=O)O[C@H]2CCOC2)cc1)CO [Compound 15],1.6
8,"C/C(=C\CCP(=O)(N[C@@H](C)C(=O)OCC(C)C)Oc1ccc(C[C@H](NCCCc2ccccc2)C(=O)NC(C)C)cc1)CO (stereo partly drawn) [Compound 16, Isobutyl (((E)-5-hydroxy-4-methylpent-3-en-1-yl)(4-((S)-3-(isopropylamino)-3-oxo-2-((3-phenylpropyl)amino)propyl)phenoxy)phosphoryl)-L-alaninate]",0.011
